Laboratory results reported in patent EP2951180B1, “2,6,7,8 SUBSTITUTED PURINES AS HDM2 INHIBITORS” (Merck Sharp & Dohme Corp., priority 2013, dated 2014).

Target: T1, HDM2 (Homo sapiens, UniProt Q00987)
T1 construct: Thioredoxin (N); made in house; host or cells: E. coli strain BL21(DE3)Rosetta
Assay: HDM2 FRET assay (inhibition of binding of FITC labeled p53-pocket peptide to HDM2)
Details: Table 23; read-out: FRET IC50
Summary of the method: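 Final: 0.5 nM His-HDM2, 3 nM FITC peptide, 0.25 nM Tb anti-His Ab; PBS, 0.01% BSA, 0.01% Tween-20; 0.1% DMSO.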

T1 sequence (Q00987 17-125): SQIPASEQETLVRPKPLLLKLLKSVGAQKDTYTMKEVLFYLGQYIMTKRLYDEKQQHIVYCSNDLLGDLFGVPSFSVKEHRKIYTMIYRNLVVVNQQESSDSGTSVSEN

| SMILES | IC50 [µM] |
| --- | --- |
| C[C@H]1CC[C@H](Cn2c(C(=O)C3CCOCC3)nc3nc(-c4noc(=O)[nH]4)nc(-c4cccc(Cl)c4)c32)CC1 [Example 23.3, 3-[6-(3-chlorophenyl)-7-[(trans-4-methylcyclohexyl)methyl]-8-(tetrahydro-2H-pyran-4-ylcarbonyl)-7H-purin-2-yl]-1,2,4-oxadiazol-5(4H)-one] | 0.0214 |
| C[C@H]1CC[C@H](Cn2c(C(=O)C3CCCCC3)nc3nc(-c4noc(=O)[nH]4)nc(-c4cccc(Cl)c4)c32)CC1 [Example 23.6, 3-{6-(3-chlorophenyl)-8-(cyclohexylcarbonyl)-7-[(trans-4-methylcyclohexyl)methyl] -7H-purin-2-yl}-1,2,4-oxadiazol-5(4H)-one] | 0.0139 |
| C[C@H]1CC[C@H](Cn2c(C(=O)C3CCOCC3)nc3nc(-c4n[nH]c(=O)o4)nc(-c4cccc(Cl)c4)c32)CC1 [Example 23.9, 5-[6-(3-chlorophenyl)-7-[(trans-4-methylcyclohexyl)methyl] -8-(tetrahydro-2H-pyran-4-ylcarbonyl)-7H-purin-2-yl]-1,3,4-oxadiazol-2(3H)-one] | 0.0246 |
| C[C@H]1CC[C@H](Cn2c(C3(F)COC3)nc3nc(-c4noc(=O)[nH]4)nc(-c4cncc(Cl)c4)c32)CC1 [Example 23.28, 3-{6-(5-chloropyridin-3-yl)-8-(3-fluorooxetan-3-yl)-7-[(trans-4-methylcyclohexyl)methyl]-7H-purin-2-yl}-1,2,4-oxadiazol-5(4H)-one] | 0.0628 |
| C[C@H]1CC[C@H](Cn2c(C3(F)CCC3)nc3nc(-c4n[nH]c(=O)o4)nc(-c4cncc(Cl)c4)c32)CC1 [Example 23.38, 5-{6-(5-chloropyridin-3-yl)-8-(1-fluorocyclobutyl)-7-[(trans-4-methylcyclohexyl)methyl] -7H-purin-2-yl}-1,3,4-oxadiazol-2(3H)-one] | 0.0311 |
| C[C@H]1CC[C@H](Cn2c(C3(F)CCCCC3)nc3nc(-c4noc(=O)[nH]4)nc(-c4cncc(Cl)c4)c32)CC1 [Example 23.39, 3-{6-(5-chloropyridin-3-yl)-8-(1-fluorocyclohexyl)-7-[(trans-4-methylcyclohexyl)methyl] -7H-purin-2-yl}-1,2,4-oxadiazol-5(4H)-one] | 0.0181 |
| C[C@H]1CC[C@H](Cn2c(C3(F)CCCC3)nc3nc(-c4n[nH]c(=O)o4)nc(-c4cncc(Cl)c4)c32)CC1 [Example 23.40, 5-{6-(5-chloropyridin-3-yl)-8-(1-fluorocyclopentyl)-7-[(trans-4-methylcyclohexyl)methyl] -7H-purin-2-yl}-1,3,4-oxadiazol-2(3H)-one] | 0.015 |
| C[C@H]1CC[C@H](Cn2c(C(=O)c3ccccc3)nc3nc(-c4noc(=O)[nH]4)nc(-c4cccc(Cl)c4)c32)CC1 [Example 23.43, 3-[6-(3-chlorophenyl)-7-[(trans-4-methylcyclohexyl)methyl]-8-(phenylcarbonyl)-7H-purin-2-yl]-1,2,4-oxadiazol-5(4H)-one] | 0.0727 |
| C[C@H]1CC[C@H](Cn2c(C3(F)CCCCC3)nc3nc(-c4n[nH]c(=O)o4)nc(-c4cncc(Cl)c4)c32)CC1 [Example 23.56, 5-{6-(5-chloropyridin-3-yl)-8-(1-fluorocyclohexyl)-7-[(trans-4-methylcyclohexyl)methyl] -7H-purin-2-yl}-1,3,4-oxadiazol-2(3H)-one] | 0.0107 |
| COC1(c2nc3nc(-c4noc(=O)[nH]4)nc(-c4cncc(Cl)c4)c3n2C[C@H]2CC[C@H](C)CC2)CCC1 [Example 23.62, 3-{6-(5-chloropyridin-3-yl)-8-(1-methoxycyclobutyl)-7-[(trans-4-methylcyclohexyl)methyl] -7H-purin-2-yl}-1,2,4-oxadiazol-5(4H)-one] | 0.0131 |
| COC1(c2nc3nc(-c4noc(=O)[nH]4)nc(-c4cncc(Cl)c4)c3n2C[C@H]2CC[C@H](C)CC2)COC1 [Example 23.70, 3-{6-(5-chloropyridin-3-yl)-8-(3-methoxyoxetan-3-yl)-7-[(trans-4-methylcyclohexyl)methyl] -7H-purin-2-yl}-1,2,4-oxadiazol-5(4H)-one] | 0.00944 |
